Laboratory results reported in publication PMC8281026, “Peptide Based Inhibitors of Protein Binding to the Mitogen-Activated Protein Kinase Docking Groove” (Frontiers in Molecular Biosciences, 2021).
*1 amine or outer side, *2 acyl side, *3 side chain or, on linkers, in order; H or OH if unused. Where a SMILES comes first, the peptide text is derived from it. Bridges are numbered along the chain shown (N, C = ends). The star is where a group is joined. Dabcyl = CN(C)c1ccc(N=Nc2ccc(C(=O)*)cc2)cc1; TBMB = c1c(C[*:1])cc(C[*:3])cc1C[*:2]; X1 = O=C(C[*:2])[*:1]

What was measured:
[1] = system: HEK-293T cells; test: Cellular uptake by fluorescence microscopy; format: cell-based; conditions: for cellular uptake: data is not shown; for internalization into HEK-293T cells: fluorescence microscopy, serum-free medium, 37 °C, up to 3 h, Figure 1
Description: (§1) The cellular uptake of the fluorescent labeled peptide into HEK-293T cells were analyzed by fluorescence microscopy (Cytation 3, BioTek Instruments) and two peptides were further examined by confocal laser scanning microscopy (Zeiss LSM-710 system). Cells were incubated with peptides in serum-free medium (DMEM) for 3 h at 37 °C and then washed twice with 200 μl of serum-free medium before analyzing.

[2] = target: active ERK2 (pp-ERK2) (Homo sapiens, UniProt P28482); test: In vitro MAPK activity assay (Nanobit luciferase protein fragment complementation), ERK2; format: biochemical; conditions: for EC50 increase relative to peptide 8: ratio of EC50 values, compared with peptide 8; for EC50: 1 nM pp-ERK2, 2 mM ATP, 50 mM HEPES pH 7.5, initial rates, luminescence, at least 3 independent measurements
Chain of active ERK2 (pp-ERK2) (P28482 whole entry, the tested form may be a part): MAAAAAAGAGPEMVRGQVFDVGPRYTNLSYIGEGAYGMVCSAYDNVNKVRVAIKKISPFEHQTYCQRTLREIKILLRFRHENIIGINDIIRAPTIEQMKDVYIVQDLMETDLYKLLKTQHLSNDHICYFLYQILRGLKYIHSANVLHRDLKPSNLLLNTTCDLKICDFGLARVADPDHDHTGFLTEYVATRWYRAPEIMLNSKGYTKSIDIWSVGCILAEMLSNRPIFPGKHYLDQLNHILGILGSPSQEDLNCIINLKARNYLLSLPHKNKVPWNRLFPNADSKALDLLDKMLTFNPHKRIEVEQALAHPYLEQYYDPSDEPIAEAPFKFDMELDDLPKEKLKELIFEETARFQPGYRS
Description: (§2) In order to determine the inhibitory effect of RHDF-peptides, we used a protein fragment complementation based assay. […] Upon MAPK activity, these two proteins bind and form the active luciferase enzyme oxidizing its substrate (coelenterazine) and ultimately giving some luminescent signal. The initial rates of the reactions were calculated and were compared for the applied inhibitor’s concentration, and then EC50 values were determined using dose response fitting (OriginPro) (see in Supplementary Figure S26). Reactions were carried out in a buffer of 50 mM HEPES, pH 7.5, 100 mM NaCl, 5 mM MgCl2, 0.05% IGEPAL, 50 μM Coelenterazine h, 5% glycerol, 2 mM DTT, 1mM TCEP, 0.5 mg/ml BSA containing 1 nM active ERK2 (pp-ERK2) or p38 (pp-p38α) and were started by the addition of 2 mM ATP. Luminescence was measured using a luminescence plate reader (Cytation 3, BioTek) in white 96-well plates.

[3] = target: T1, p38α (Homo sapiens, UniProt Q16539); test: Fluorescence polarization competitive binding assay, p38; conditions: competitive FP titration against 50 nM Cf-RHDF (gives Ki, used as proxy of Kd); 20 mM Tris pH 8.0, 100 mM NaCl, 0.05% Brij35, 2 mM TCEP; at least 3 independent measurements; read-out: Kd (µM) ± sd, p38
T1 construct: made in house; host or cells: Escherichia coli
T1 sequence (Q16539 whole entry): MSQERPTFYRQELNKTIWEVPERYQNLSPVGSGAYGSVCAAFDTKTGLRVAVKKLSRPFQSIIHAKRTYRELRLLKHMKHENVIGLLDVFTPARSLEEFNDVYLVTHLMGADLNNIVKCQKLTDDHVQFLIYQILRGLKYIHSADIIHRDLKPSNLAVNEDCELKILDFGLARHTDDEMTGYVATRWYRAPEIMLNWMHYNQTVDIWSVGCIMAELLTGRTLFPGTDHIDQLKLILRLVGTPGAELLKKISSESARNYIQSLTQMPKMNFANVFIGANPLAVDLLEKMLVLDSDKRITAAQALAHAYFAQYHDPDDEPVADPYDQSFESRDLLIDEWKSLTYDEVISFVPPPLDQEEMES
Description: (§3) ERK2 and p38 proteins used for fluorescence polarization (FP) measurements were recombinantly expressed in Escherichia coli and purified according to Garai et al. The purified and concentrated proteins were subjected to fluorescence polarization based binding measurements ([Garai et al., 2012]) using 50 nM Cf-labeled Cf-RHDF (Cf-SLQRKKPPWLKLDIPSC) and the data was analyzed using OriginPro. For direct measurements the concentration of ERK2 and p38 protein was increased, and for competitive measurements the protein-labeled peptide complex at 60–80% complex formation was titrated with increasing concentration of unlabeled peptide and the amount of the protein-labeled peptide complex (fraction bound) was determined using Cytation 3 (BioTek Instruments) plate reader in 384-well black plates. The direct measurement gives the Kd between the labeled peptide and the MAPK, while the competitive titration experiment with the unlabeled peptide gives the Ki for the unlabeled peptide competing off the labeled peptide, which is a good proxy for the binding affinity of the unlabeled peptide to the protein. All of the FP measurements were performed in assay buffer: 20 mM Tris (pH 8.0), 100 mM NaCl, 0.05% Brij35, and 2 mM TCEP. Fraction bound of the labeled ligand was calculated based on direct binding and competitive binding equations described in ([Roehrl et al., 2004]; [Simon et al., 2020]). The Kd and Ki values were obtained by fitting the FP data, measured in triplicates, to a direct binding equation or to a competitive binding equation using the OriginPro software.

[4] = target: T2, ERK2 (Homo sapiens, UniProt P28482); test: Fluorescence polarization competitive binding assay, ERK2; conditions: for Kd: competitive FP titration against 50 nM Cf-RHDF (gives Ki, used as proxy of Kd), 20 mM Tris pH 8.0, 100 mM NaCl, 0.05% Brij35, 2 mM TCEP, at least 3 independent measurements, read-out: Kd (µM) ± sd, ERK2
T2 construct: made in house; host or cells: Escherichia coli
T2 sequence (P28482 whole entry, species assumed): as the sequence (P28482 whole entry, the tested form may be a part) above
Description: as §3

[5] = system: HEK-293T cells; test: Intracellular distribution by confocal laser scanning microscopy; format: cell-based; conditions: 10 and 20 µM, 3 h
Description: as §1

[6] = target: p38 (pp-p38α) (Homo sapiens, UniProt Q16539); test: In vitro MAPK activity assay (Nanobit luciferase protein fragment complementation), p38; format: biochemical; conditions: 1 nM pp-p38α, 2 mM ATP, 50 mM HEPES pH 7.5; initial rates, luminescence; at least 3 independent measurements
Chain of p38 (pp-p38α) (Q16539 whole entry, the tested form may be a part): as the sequence (Q16539 whole entry) above
Description: as §2

Compound: CC[C@H](C)[C@H](NC(=O)[C@H](CC(=O)O)NC(=O)[C@H](CC(C)C)NC(=O)[C@H](CCCCN)NC(=O)[C@H](CC(C)C)NC(=O)[C@H](Cc1c[nH]c2ccccc12)NC(=O)[C@@H]1CCCN1C(=O)[C@@H]1CCCN1C(=O)[C@H](CCCCN)NC(=O)[C@H](CCCCN)NC(=O)[C@H](CCCNC(=N)N)NC(=O)[C@H](CCC(N)=O)NC(=O)[C@H](CC(C)C)NC(=O)[C@@H](N)CO)C(=O)N1CCC[C@H]1C(=O)N[C@@H](CO)C(=O)N[C@@H](CS)C(N)=O [compound 1, H-SLQRKKPPWLKLDIPSC-NH 2]
- cellular uptake [1]: poor

Compound: CC[C@H](C)[C@H](NC(=O)[C@H](CC(=O)O)NC(=O)[C@H](CC(C)C)NC(=O)[C@H](CCCNC(=N)N)NC(=O)[C@H](CC(C)C)NC(=O)[C@H](Cc1c[nH]c2ccccc12)NC(=O)[C@@H]1CCCN1C(=O)[C@@H]1CCCN1C(=O)[C@H](CCCNC(=N)N)NC(=O)[C@H](CCCNC(=N)N)NC(=O)[C@H](CCCNC(=N)N)NC(=O)c1ccc(/N=N/c2ccc(N(C)C)cc2)cc1)C(=O)N[C@@H](CCCNC(=N)N)C(=O)N[C@@H](CCCNC(=N)N)C(=O)N[C@@H](CCCCN)C(N)=O [compound 10, Dabcyl-RRRPPWLRLDIRRK-NH 2]
- EC50 increase relative to peptide 8 [2]: 2.4 times

Compound: CC(C)C[C@@H]1NC(=O)[C@H](CCCNC(=N)N)NC(=O)[C@H](CC(C)C)NC(=O)[C@@H](NC(=O)[C@H](Cc2c[nH]c3ccccc23)NC(=O)[C@@H]2CCCN2C(=O)[C@@H]2CCCN2C(=O)[C@H](CCCNC(=N)N)NC(=O)[C@H](CCCNC(=N)N)NC(=O)[C@H](CCCNC(=N)N)NC(=O)c2ccc(N=Nc3ccc(N(C)C)cc3)cc2)CCCCNC(=O)CSC[C@@H](C(N)=O)NC(=O)[C@H](CCCNC(=N)N)NC(=O)[C@H](CCCNC(=N)N)NC(=O)[C@H](CC(=O)O)NC1=O [compound 12] (Dabcyl-RRRPPWKLRLDRRC-NH2; linker 7-14 via X1)
- Kd [3]: 1.7 ± 0.4 µM
- Kd [4]: 4.1 ± 0.3 µM

Compound: CC(C)C[C@@H]1NC(=O)[C@H](CCCNC(=N)N)NC(=O)[C@H](CC(C)C)NC(=O)[C@H](Cc2c[nH]c3ccccc23)NC(=O)[C@@H]2CCCN2C(=O)[C@@H]2CCCN2C(=O)[C@@H](NC(=O)[C@H](CCCNC(=N)N)NC(=O)[C@H](CCCNC(=N)N)NC(=O)[C@H](CCCNC(=N)N)NC(=O)c2ccc(N=Nc3ccc(N(C)C)cc3)cc2)CCCCNC(=O)CSC[C@@H](C(N)=O)NC(=O)[C@H](CCCNC(=N)N)NC(=O)[C@H](CCCNC(=N)N)NC(=O)[C@H](CC(=O)O)NC1=O [compound 13] (Dabcyl-RRRKPPWLRLDRRC-NH2; linker 4-14 via X1)
- Kd [3]: 1 ± 0.7 µM
- Kd [4]: 1 ± 0.2 µM

Compound: CC(C)C[C@@H]1NC(=O)[C@H](CCCNC(=N)N)NC(=O)[C@H](CC(C)C)NC(=O)[C@H](Cc2c[nH]c3ccccc23)NC(=O)[C@@H]2CCCN2C(=O)[C@@H]2CCCN2C(=O)[C@H](CCCNC(=N)N)NC(=O)[C@H](CCCNC(=N)N)NC(=O)[C@H](CCCNC(=N)N)NC(=O)[C@@H](NC(=O)c2ccc(N=Nc3ccc(N(C)C)cc3)cc2)CCCCNC(=O)CSC[C@@H](C(N)=O)NC(=O)[C@H](CCCNC(=N)N)NC(=O)[C@H](CCCNC(=N)N)NC(=O)[C@H](CC(=O)O)NC1=O [compound 14] (Dabcyl-KRRRPPWLRLDRRC-NH2; linker 1-14 via X1)
- Kd [3]: 2.1 ± 0.6 µM
- Kd [4]: 5.1 ± 0.4 µM

Compound: CC[C@H](C)[C@@H]1NC(=O)[C@H](CC(=O)O)NC(=O)[C@H](CC(C)C)NC(=O)[C@H](CCCNC(=N)N)NC(=O)[C@H](CC(C)C)NC(=O)[C@H](Cc2c[nH]c3ccccc23)NC(=O)[C@@H]2CCCN2C(=O)[C@@H]2CCCN2C(=O)[C@@H](NC(=O)[C@H](CCCNC(=N)N)NC(=O)[C@H](CCCNC(=N)N)NC(=O)[C@H](CCCNC(=N)N)NC(=O)c2ccc(N=Nc3ccc(N(C)C)cc3)cc2)CCCCNC(=O)CSC[C@@H](C(N)=O)NC(=O)[C@H](CCCNC(=N)N)NC(=O)[C@H](CCCNC(=N)N)NC1=O [compound 15] (Dabcyl-RRRKPPWLRLDIRRC-NH2; linker 4-15 via X1)
- Kd [3]: 1.2 ± 0.6 µM
- Kd [4]: 1.5 ± 0.3 µM

Compound: CC[C@H](C)[C@@H]1NC(=O)[C@H](CC(=O)O)NC(=O)[C@H](CC(C)C)NC(=O)[C@H](CCCNC(=N)N)NC(=O)[C@H](CC(C)C)NC(=O)[C@@H]2CSCc3cc(cc(c3)CSC[C@H](NC(=O)[C@H](CCCNC(=N)N)NC(=O)[C@H](CCCNC(=N)N)NC(=O)[C@H](CCCNC(=N)N)NC(=O)c3ccc(N=Nc4ccc(N(C)C)cc4)cc3)C(=O)N3CCC[C@H]3C(=O)N3CCC[C@H]3C(=O)N[C@@H](Cc3c[nH]c4ccccc34)C(=O)N2)CSC[C@@H](C(N)=O)NC(=O)[C@H](CCCNC(=N)N)NC(=O)[C@H](CCCNC(=N)N)NC1=O [compound 16] (Dabcyl-RRRCPPWCLRLDIRRC-NH2; linker 4-8-16 via TBMB)
- Kd [3]: 1.4 ± 0.4 µM
- Kd [4]: 0.9 ± 0.2 µM

Compound: CC(C)C[C@@H]1NC(=O)[C@H](CCCNC(=N)N)NC(=O)[C@H](CC(C)C)NC(=O)[C@@H]2CSCc3cc(cc(c3)CSC[C@H](NC(=O)[C@H](CCCNC(=N)N)NC(=O)[C@H](CCCNC(=N)N)NC(=O)[C@H](CCCNC(=N)N)NC(=O)c3ccc(N=Nc4ccc(N(C)C)cc4)cc3)C(=O)N3CCC[C@H]3C(=O)N3CCC[C@H]3C(=O)N[C@@H](Cc3c[nH]c4ccccc34)C(=O)N2)CSC[C@@H](C(N)=O)NC(=O)[C@H](CCCNC(=N)N)NC(=O)[C@H](CCCNC(=N)N)NC(=O)[C@H](CC(=O)O)NC1=O [compound 17] (Dabcyl-RRRCPPWCLRLDRRC-NH2; linker 4-8-15 via TBMB)
- Kd [3]: 3.2 ± 0.7 µM
- Kd [4]: 4.5 ± 0.6 µM

Compound: Cf- RRRPPWLRLDIRR-NH 2 [compound 9]
- internalization into HEK-293T cells [1]: time and concentration dependent internalization
- intracellular distribution [5]: punctuated

Compound: Cf-RRPPWLRLDIRR-NH 2 [compound 7]
- internalization into HEK-293T cells [1]: time and concentration dependent internalization

Compound: H-KKPPWLKLDI-NH2 [compound 4, H-KKPPWLKLDI-NH 2]
- cellular uptake [1]: poor
- binding decrease relative to the original peptide ([4]; ERK2 Kd, compared with original peptide 1): 8.3 times

Compound: H-RRPPWLRLDI-NH2 [compound 5, H-RRPPWLRLDI-NH 2]
- cellular uptake [1]: poor

Compound: H-RRPPWLRLDIRR-NH2 [compound 6, H-RRPPWLRLDIRR-NH 2]
- EC50 [2]: 12.9 µM
- EC50 increase relative to peptide 8 [2]: 3.7 times
- EC50 [6]: 3.7 µM
- binding enhancement by extension of the C-terminus by two Arg ([4]; ERK2 Kd, compared with peptide 5): 3.5 times

Compound: H-RRRPPWLRLDIRR-NH2 [compound 8, H-RRRPPWLRLDIRR-NH 2]
- EC50 [2]: 3.5 µM
- EC50 [6]: 1.3 µM
- Kd [3]: 1.4 ± 0.3 µM
